Tested on: not listed separately
Experiment: Caco-2 membrane permeability / bi-directional transport (Papp)
Format: in vitro ADME, human
Settings: human; Caco-2 cells, A to B, 10 μM
Protocol: (§1) Determination of membrane permeability in all examples described herein was accomplished by the following procedure. This procedure is also used to determine whether a given prodrug falls within the scope of those claims given herein which relate to membrane permeability.
(§2) DMEM was equilibrated as a transport buffer in 37° C. water bath an hour before experiment. The cells were then equilibrated in transport buffer for 1 hr at 37° C.
(§3) Dosing solution (10 μM) was prepared by adding a 20 μL aliquot of a 10 mM stock solution of the prodrug to 20 mL of transport buffer.
(§4) Transport buffer was removed from both apical and basolateral compartment of filters. […] […] Fresh transport buffer (400 μL) was added back to the basolateral compartment, and the fluid was thoroughly mixed.
(§5) Lucifer yellow (LY) was used as a paracellular permeability reference standard to determine integrity of cell layers used in the experiments. LY transport in the apical to basolateral direction was carried out in the same manner as described above. Fluorescence level in basolateral fluid sampled at 5, 20, and 60 min post dose was determined using Fluostar Galaxy (BMG Labtechnologies, Durham, N.C.) at excitation/emission wavelengths of 485/520 nm. A standard curve covering the range from 0.002 to 0.5 mg/mL is constructed to quantify the amount of LY in the transport sample to calculate permeability coefficient (Papp).

Structure (SMILES) | Papp A→B at 60 min, 10 μM
COc1ccc2[nH]c([S+]([O-])Cc3ncc(C)c(OC)c3C)nc2c1 (stereo not drawn) [Omeprazole] | 12.6 ×10⁻⁶ cm/s

Same assay, conditions: human; Caco-2 cells, B to A, 10 μM

Structure (SMILES) | Papp B→A at 60 min, 10 μM
COc1ccc2[nH]c([S+]([O-])Cc3ncc(C)c(OC)c3C)nc2c1 (stereo not drawn) [Omeprazole] | 16.3 ×10⁻⁶ cm/s

Same assay, conditions: human; Caco-2 cells; read-out: Ratio Papp BA/Papp AB

Structure (SMILES) | efflux ratio at 60 min, 10 µM
COc1ccc2[nH]c([S+]([O-])Cc3ncc(C)c(OC)c3C)nc2c1 (stereo not drawn) [Omeprazole] | 1.29

Tested on: Caco-2 cells
Experiment: as above
Format: in vitro ADME, human
Settings: apical to basolateral, 10 μM, 37° C.
Protocol: as §1, §2, §3, §4, §5

Structure (SMILES) | Permeability
Cc1c(OCC(F)(F)F)ccnc1C[S+]([O-])c1nc2ccccc2n1S(=O)(=O)c1ccc(CC(=O)O)cc1 (stereo not drawn) [Compound 9] | 0.34 ×10⁻⁶ cm/s
Cc1c(OCC(F)(F)F)ccnc1C[S+]([O-])c1nc2ccccc2n1S(=O)(=O)c1cccc(C(=O)O)c1 (stereo not drawn) [Compound 7] | 0.16 ×10⁻⁶ cm/s
COc1ccc(S(=O)(=O)n2c([S+]([O-])Cc3nccc(OCC(F)(F)F)c3C)nc3ccccc32)cc1C(=O)O (stereo not drawn) [Compound 8] | 0.23 ×10⁻⁶ cm/s

Tested on: MDR1
Experiment: MDR1-MDCK bi-directional transport (Papp)
Format: in vitro ADME
Settings: dog; MDR1-MDCK cells, B to A, 10 μM
Text: as §1
• Test System: Cultured Caco-2 cells and MDR1-MDCK cells • Seeding Density: 2×10^5 cells/cm^2 in Costar 12 well Transwell™plates • Culture Age: 17-21 days post seeding for Caco-2 cells, 2-3 days post seeding for MDR1-MDCK cells • Source: American Type Culture Collection, Manassas, Va. […]
The apparent permeability coefficient (Papp, cm/sec), otherwise known herein as the membrane permeability, is determined from the following relationship: […]
The transport rate J, is calculated as the slope of the linear regression fit for the transport amount over time data using Microsoft Excel® 97 SR-2 (Microsoft Corp. Redmond, Wash.),
Lucifer yellow (LY) was used as a paracellular permeability reference standard to determine integrity of cell layers used in the experiments. […] Fluorescence level in basolateral fluid sampled at 5, 20, and 60 min post dose was determined using Fluostar Galaxy (BMG Labtechnologies, Durham, N.C.) at excitation/emission wavelengths of 485/520 nm. […]

Structure (SMILES) | Papp B→A at 60 min, 10 μM
COc1ccc2[nH]c([S+]([O-])Cc3ncc(C)c(OC)c3C)nc2c1 (stereo not drawn) [Omeprazole] | 17.1 ×10⁻⁶ cm/s

Same assay, conditions: dog; MDR1-MDCK cells; read-out: Ratio Papp BA/Papp AB

Structure (SMILES) | efflux ratio at 60 min, 10 µM
COc1ccc2[nH]c([S+]([O-])Cc3ncc(C)c(OC)c3C)nc2c1 (stereo not drawn) [Omeprazole] | 1.52

Tested on: not listed separately
Experiment: Pharmacokinetics in rats after oral or intravenous administration
Format: in vivo, rats (Sprague-Dawley)
Parameters: key to Rat T1/2 Prodrug: NC: plasma concentration of prodrug was too low to calculate half-life, or undetected; Rat T1/2 PPI: unit not given here
Settings: oral, systemic half-life of intact prodrug, parenthesis = standard deviation
Protocol: (§6) Blood concentrations of the compounds omeprazole, lansoprazole, pantoprazole, rabeprazole, and test compounds were quantified using an achiral liquid chromatography tandem mass spectrometry method (LC-MS/MS). Systemic pharmacokinetic parameters were determined for omeprazole or lansoprazole using non-compartmental analysis in Watson® version 6.3, available from InnaPhase Corporation, Philadelphia, Pa.

Structure (SMILES) | Rat T1/2 Prodrug
Cc1c(OCC(F)(F)F)ccnc1C[S+]([O-])c1nc2ccccc2n1S(=O)(=O)c1ccc(CC(=O)O)cc1 (stereo not drawn) [Compound 9] | NC
Cc1c(OCC(F)(F)F)ccnc1C[S+]([O-])c1nc2ccccc2n1S(=O)(=O)c1cccc(C(=O)O)c1 (stereo not drawn) [Compound 7] | NC
COc1ccc(S(=O)(=O)n2c([S+]([O-])Cc3nccc(OCC(F)(F)F)c3C)nc3ccccc32)cc1C(=O)O (stereo not drawn) [Compound 8] | NC

Results, then the compound that gave them:

Rat T1/2 Prodrug | Structure (SMILES)
NC | Cc1ccc(C(=O)O)cc1S(=O)(=O)n1c([S+]([O-])Cc2nccc(OCC(F)(F)F)c2C)nc2ccccc21 (stereo not drawn) [Compound 13]
NC | Cc1c(OCC(F)(F)F)ccnc1C[S+]([O-])c1nc2ccccc2n1S(=O)(=O)c1ccc(OCC(C)(C)C(=O)O)cc1 (stereo not drawn) [Compound 11]

Same assay, conditions: oral, systemic half-life of the proton pump inhibitor, parenthesis = standard deviation

Structure (SMILES) | Rat T1/2 PPI
Cc1c(OCC(F)(F)F)ccnc1C[S+]([O-])c1nc2ccccc2n1S(=O)(=O)c1ccc(CC(=O)O)cc1 (stereo not drawn) [Compound 9] | 0.341 (0.151)
Cc1c(OCC(F)(F)F)ccnc1C[S+]([O-])c1nc2ccccc2n1S(=O)(=O)c1cccc(C(=O)O)c1 (stereo not drawn) [Compound 7] | 1.93 (1.41)
COc1ccc(S(=O)(=O)n2c([S+]([O-])Cc3nccc(OCC(F)(F)F)c3C)nc3ccccc32)cc1C(=O)O (stereo not drawn) [Compound 8] | 1.80 (1.20)

Further lines, results first:

Rat T1/2 PPI | Structure (SMILES)
0.536 (0.217) | COc1ccc(C(=O)O)cc1S(=O)(=O)n1c([S+]([O-])Cc2nccc(OCC(F)(F)F)c2C)nc2ccccc21 (stereo not drawn) [Compound 14]
2.35 (1.22) | Cc1ccc(C(=O)O)cc1S(=O)(=O)n1c([S+]([O-])Cc2nccc(OCC(F)(F)F)c2C)nc2ccccc21 (stereo not drawn) [Compound 13]
0.933 (1.009) | Cc1c(OCC(F)(F)F)ccnc1C[S+]([O-])c1nc2ccccc2n1S(=O)(=O)c1ccc(OCC(C)(C)C(=O)O)cc1 (stereo not drawn) [Compound 11]

Tested on: not listed separately
Experiment: Pharmacokinetics in dogs after oral or intravenous administration
Format: in vivo, dogs (beagle)
Parameters: key to Dog T1/2 Prodrug: NC: plasma concentration of prodrug was too low to calculate half-life, or undetected
Settings: dog; oral; systemic half-life of intact prodrug; parenthesis = standard deviation
Protocol: as §6

Structure (SMILES) | Dog T1/2 Prodrug
Cc1c(OCC(F)(F)F)ccnc1C[S+]([O-])c1nc2ccccc2n1S(=O)(=O)c1ccc(CC(=O)O)cc1 (stereo not drawn) [Compound 9] | NC
Cc1c(OCC(F)(F)F)ccnc1C[S+]([O-])c1nc2ccccc2n1S(=O)(=O)c1cccc(C(=O)O)c1 (stereo not drawn) [Compound 7] | 12.4 min
Cc1c(OCC(F)(F)F)ccnc1C[S+]([O-])c1nc2ccccc2n1S(=O)(=O)c1ccc(OCC(=O)O)cc1 (stereo not drawn) [Compound 10] | NC
COc1ccc(S(=O)(=O)n2c([S+]([O-])Cc3nccc(OCC(F)(F)F)c3C)nc3ccccc32)cc1C(=O)O (stereo not drawn) [Compound 8] | NC

Other lines, results leading:

Dog T1/2 Prodrug | Structure (SMILES)
7.08 min | COc1ccc(C(=O)O)cc1S(=O)(=O)n1c([S+]([O-])Cc2nccc(OCC(F)(F)F)c2C)nc2ccccc21 (stereo not drawn) [Compound 14]
NC | Cc1c(OCC(F)(F)F)ccnc1C[S+]([O-])c1nc2ccccc2n1S(=O)(=O)c1ccc(CC(=O)O)cc1C(C)C (stereo not drawn) [Compound 15]
NC | Cc1c(OCC(F)(F)F)ccnc1C[S+]([O-])c1nc2ccccc2n1S(=O)(=O)c1ccc(CC(=O)O)c(CC(=O)O)c1 (stereo not drawn) [Compound 12]
7.32 min | Cc1ccc(C(=O)O)cc1S(=O)(=O)n1c([S+]([O-])Cc2nccc(OCC(F)(F)F)c2C)nc2ccccc21 (stereo not drawn) [Compound 13]
NC | Cc1c(OCC(F)(F)F)ccnc1C[S+]([O-])c1nc2ccccc2n1S(=O)(=O)c1ccc(OCC(C)(C)C(=O)O)cc1 (stereo not drawn) [Compound 11]

Same assay, conditions: dog; oral; systemic half-life of the proton pump inhibitor; parenthesis = standard deviation

Structure (SMILES) | Dog T1/2 PPI
Cc1c(OCC(F)(F)F)ccnc1C[S+]([O-])c1nc2ccccc2n1S(=O)(=O)c1ccc(CC(=O)O)cc1 (stereo not drawn) [Compound 9] | 53.6 min
Cc1c(OCC(F)(F)F)ccnc1C[S+]([O-])c1nc2ccccc2n1S(=O)(=O)c1cccc(C(=O)O)c1 (stereo not drawn) [Compound 7] | 53.6 min
Cc1c(OCC(F)(F)F)ccnc1C[S+]([O-])c1nc2ccccc2n1S(=O)(=O)c1ccc(OCC(=O)O)cc1 (stereo not drawn) [Compound 10] | 0.989 (0.307)
COc1ccc(S(=O)(=O)n2c([S+]([O-])Cc3nccc(OCC(F)(F)F)c3C)nc3ccccc32)cc1C(=O)O (stereo not drawn) [Compound 8] | 64.8 min

The remaining lines, values ahead:

Dog T1/2 PPI | Structure (SMILES)
83.4 min | COc1ccc(C(=O)O)cc1S(=O)(=O)n1c([S+]([O-])Cc2nccc(OCC(F)(F)F)c2C)nc2ccccc21 (stereo not drawn) [Compound 14]
55.4 min | Cc1c(OCC(F)(F)F)ccnc1C[S+]([O-])c1nc2ccccc2n1S(=O)(=O)c1ccc(CC(=O)O)cc1C(C)C (stereo not drawn) [Compound 15]
55.9 min | Cc1c(OCC(F)(F)F)ccnc1C[S+]([O-])c1nc2ccccc2n1S(=O)(=O)c1ccc(CC(=O)O)c(CC(=O)O)c1 (stereo not drawn) [Compound 12]
106 min | Cc1ccc(C(=O)O)cc1S(=O)(=O)n1c([S+]([O-])Cc2nccc(OCC(F)(F)F)c2C)nc2ccccc21 (stereo not drawn) [Compound 13]
0.873 (0.288) | Cc1c(OCC(F)(F)F)ccnc1C[S+]([O-])c1nc2ccccc2n1S(=O)(=O)c1ccc(OCC(C)(C)C(=O)O)cc1 (stereo not drawn) [Compound 11]

Same assay, conditions: systemic half-life of PPI in dogs after oral administration

Structure (SMILES) | t1/2
Cc1c(OCC(F)(F)F)ccnc1C[S+]([O-])c1nc2ccccc2n1S(=O)(=O)c1ccc(CC(=O)O)cc1 (stereo not drawn) [Compound 9] | 53.4 min
Cc1c(OCC(F)(F)F)ccnc1C[S+]([O-])c1nc2ccccc2n1S(=O)(=O)c1cccc(C(=O)O)c1 (stereo not drawn) [Compound 7] | 53.4 min
COc1ccc(S(=O)(=O)n2c([S+]([O-])Cc3nccc(OCC(F)(F)F)c3C)nc3ccccc32)cc1C(=O)O (stereo not drawn) [Compound 8] | 66 min

Tested on: not given
Experiment: not given
Settings: pH 5; somewhat buffer dependent; Kromer et al., Ekpe et al.; cited from earlier work

Structure (SMILES) | typical half-life (stability)
COc1ccc2[nH]c([S+]([O-])Cc3ncc(C)c(OC)c3C)nc2c1 (stereo not drawn) [Omeprazole] | about 1 hour

Same assay, conditions: pH 7; somewhat buffer dependent; Kromer et al., Ekpe et al.; cited from earlier work

Structure (SMILES) | typical half-life (stability)
COc1ccc2[nH]c([S+]([O-])Cc3ncc(C)c(OC)c3C)nc2c1 (stereo not drawn) [Omeprazole] | about 40 hours

Source: US20100298205A1, “METHODS AND COMPOSITIONS FOR THE TREATMENT OF CONDITIONS RELATED TO GASTRIC ACID SECRETION” (priority 2004, published 2010)
